Measurements published in paper PMC12867150, “A fungi-derived cyclic peptide enhances Th9-mediated antitumor immunity by targeting ZAP70 and SREBP1” (The Journal of Clinical Investigation, 2025).
“And” between values parts separate entries of the source, which are not always exact repeats. Equal entries are not always repeated.

Legend:
IL-6 = test: Serum IL-6 by ELISA after ACT (S1B); format: in vivo, mouse; settings: for IL-6 of blood from mouse: Supplemental Figure 1B
Experimental: Peripheral blood was collected from mouse tail veins at predefined time points in the tumor model. Samples were allowed to clot at 4°C for 1 hour and were then centrifuged at 600g for 25 minutes to obtain serum. Serum IL-6 levels were measured using an ELISA kit (Invitrogen; catalog 88-7064) according to the manufacturer’s instructions.
Days after ACT Days after ACT
Figure S1. EpA enhances immune responses. […]
Serum IL-6 levels after ACT, measured by ELISA on days 5, 10, 15, and 20. (C–E) […]
Statistical analysis was performed using two-way ANOVA with Tukey’s post hoc test (A), one-way ANOVA with Tukey’s post hoc test (B) or two-tailed unpaired Student’s t-test (D and G–M). ns, not significant. *p < 0.05, **p < 0.01, ****p < 0.0001.
(also on this page, place not known: Mouse weight (g) CtrlEpA CtrlEpA CtrlEpA0 I CD45.1+ T cells (%) CtrlEpA CD4+ T cells (%) CtrlEpA CtrlEpA CtrlEpA FSC CD8 CD8 FSC FSC FSC BNumber of CD45.1+ T cells (×103 per mgĎ Number of CD4+ T cells (×104 per mgĎ DC (%)NK cells (%) NK cells (%) DC (%) Number of DC (×103 per mg) Number of NK cells (×105) Number of NK cells (×103 per mg) Number of DC (×105) FSC FSC FSC CD8 CtrlEpA CtrlEpA CtrlEpA CD8+ T cells (%) Number of CD8+ T cells (×104 per mgĎ nsns ns nsns ns 40 IL-6 (pg/ml))

[1] = system: chromatin accessibility in Th9 cells; test: Bulk ATAC-seq of Th9 cells (Figure 3C, S3E); format: cell-based, mouse; settings: result in words
From the text: Raw FASTQ reads were subjected to quality control using Trim Galore to remove adapter sequences and low-quality bases. Cleaned reads were aligned to the GRCm38 mouse reference genome using Bowtie2. Low-quality alignments were filtered out using SAMtools, and PCR duplicates were removed using Sambamba to reduce technical artifacts. ENCODE blacklist regions were excluded using BEDtools. Read positions were adjusted using alignmentSieve, followed by sorting and indexing with SAMtools to generate BAM files. Peak calling was conducted using MACS3 to identify regions of open chromatin indicative of accessible regulatory elements.

Th9 cells [2] = test: Seahorse oxygen consumption rate, mitochondrial stress test (Figure 4F-H); format: cell-based, mouse
Experimental: After stimulation, cells were washed, resuspended in Seahorse XF assay medium (Agilent Technologies; pH 7.40–7.45, catalog 103576-100) and seeded at 5 × 10^5 cells per well in Seahorse XF96 microplates. Plates were centrifuged at 400 × g for 5 minutes to promote adherence and monolayer formation, and all conditions were tested in quadruplicate.
Oxidative phosphorylation was assessed on the same instrument using the XFe96 Mitochondrial Stress Test Kit (Agilent Technologies, catalog 103015-100). Oligomycin (1.5 μM), FCCP (0.5 μM), and rotenone plus antimycin A (0.5 μM each) were injected sequentially to measure OCR as a proxy for oxidative phosphorylation. The mitochondrial stress response was derived from OCR values obtained before and after each injection.

Th9 cells [3] = test: IL-9+ Th9 cells transduced with MIGR1 or SREBP1 vector (S8K-L); format: cell-based, mouse; settings: for IL-9 gate number: representative flow plot, Figure S8K; for IL-9 expression of Th9 cells: Supplemental Figure 8L
Experimental: For murine T cell transduction, MIGR1-based retroviral vector encoding Srebf1 was used. HEK293T cells were transfected with these constructs using Lipofectamine 3000 (Thermo Fisher Scientific) to produce viral particles. Supernatants were collected between 48 and 72 hours after transfection, filtered through a 0.45 μm membrane, and stored at –80°C. Naive murine CD4^+ T cells were activated with plate-bound anti-CD3 (2 μg/mL, clone 17A2, BioXCell) and soluble anti-CD28 (1 μg/mL, clone 37.51, BioXCell) stimulation in the presence of subset-specific polarizing cytokines and then transduced with viral supernatant supplemented with polybrene (10 μg/mL). […]
Ctrl MIGR1EpACtrl SREBP1EpA
Figure S8. […]
(K and L) Flow-cytometric analysis of IL-9 expression in Th9 cells transduced with either control (MIGR1) or SREBP1- […]
overexpressing vectors, with or without EpA treatment, showing representative plots (K) and quantification of IL-9⁺ cells (L) (n = 3). […]
(n = 3). Statistical analysis was performed using one-way ANOVA followed by Tukey’s post hoc test (G and H, J, L, N). ns, not significant. Repeated data are presented as mean ± SEM. *p < 0.05, **p < 0.01, ***p < 0.001, ****p < 0.0001.

Experimental for Raji lymphoma cells: For infection, human T cells were activated for 40 hours with plate-bound anti-CD3 (BioLegend, clone OKT3, 5 μg/mL) and soluble anti-CD28 antibodies (BioLegend, clone CD28.2, 2 μg/mL) antibodies and then resuspended in viral supernatant (MOI = 5) supplemented with recombinant human IL-2 (100 U/mL) and polybrene (10 μg/mL). The cell-virus mixture was subjected to spinoculation at 550g for 2 hours at room temperature, followed by incubation for 24 hours. Transduced CAR T cells were harvested on days 5 or 7 after activation for downstream functional assays.
The cytotoxic activity of CD19-targeting CAR T cells was evaluated using a luciferase-based bioluminescence assay. Raji cells stably expressing firefly luciferase (ffLuc) were resuspended in RPMI 1640 medium supplemented with 10% FBS and seeded into 24-well plates. CAR T cells were added at various effector-to-target (E:T) ratios, while tumor-only wells were included as negative controls. After 20 hours of coculture, 20,000 cells from each tumor-only control well were harvested, washed with PBS, resuspended in 100 μL of lysis buffer, and transferred to a black 96-well plate. Luminescence intensity was measured using a multimode plate reader, and the percentage of specific lysis was calculated as follows: % Cytotoxicity = 1 – (luminescence of coculture well/luminescence of tumor-only control well).

## anteiso-C15 Leu7 surfactin [EpA]
IL-6; Day5, replicate 1
  IL-6 of blood from mouse: 26.4444 pg/mL
IL-6; Day5, replicate 2
  IL-6 of blood from mouse: 18 pg/mL
IL-6; Day5, replicate 3
  IL-6 of blood from mouse: 22.6667 pg/mL
IL-6; Day5, replicate 4
  IL-6 of blood from mouse: 28 pg/mL
IL-6; Day10, replicate 1
  IL-6 of blood from mouse: 22.6667 pg/mL
IL-6; Day10, replicate 2
  IL-6 of blood from mouse: 21.3333 pg/mL
IL-6; Day10, replicate 3
  IL-6 of blood from mouse: 24.2222 pg/mL
IL-6; Day10, replicate 4
  IL-6 of blood from mouse: 22 pg/mL
IL-6; Day15, replicate 1
  IL-6 of blood from mouse: 19.5556 pg/mL
IL-6; Day15, replicate 2
  IL-6 of blood from mouse: 16 pg/mL
IL-6; Day15, replicate 3
  IL-6 of blood from mouse: 11.3333 pg/mL
IL-6; Day15, replicate 4
  IL-6 of blood from mouse: 20 pg/mL
IL-6; Day20, replicate 1
  IL-6 of blood from mouse: 21.7778 pg/mL
IL-6; Day20, replicate 2
  IL-6 of blood from mouse: 14.8889 pg/mL
IL-6; Day20, replicate 3
  IL-6 of blood from mouse: 14.4445 pg/mL
IL-6; Day20, replicate 4
  IL-6 of blood from mouse: 26.8889 pg/mL
IL-6; EpA-Th9 therapy vs control, result in words
  serum IL-6 levels: No significant differences
Raji lymphoma cells
  cytotoxicity against Raji cells: significantly greater cytotoxicity
[1]
  Ifng accessibility and expression: further reduced
  Il9 locus accessibility and transcription: increased accessibility and transcription
  global chromatin accessibility: only modestly affected
Th9 cells [2]; EpA 10 μM, 4 days, result in words
  OCR, basal and maximal respiration: higher basal and maximal respiration
Th9 cells [2]; Figure 4G, individual replicates, (n = 5), in pmol/min (unit assumed)
  Basal Oxygen Consumption Rate: 169.53 and 169.91 and 173.53 and 152.33 and 158.62
Th9 cells [2]; Figure 4H, individual replicates, (n = 5), in pmol/min (unit assumed)
  Max Oxygen Consumption Rate: 295.4 and 261.85 and 290.65 and 188.88 and 233.85
Th9 cells [3]; MIGR1 control vector
  IL-9 gate number: 69.8
Th9 cells [3]; MigR1, replicate 1
  IL-9 expression of Th9 cells: 69.8
Th9 cells [3]; MigR1, replicate 2
  IL-9 expression of Th9 cells: 68.8
Th9 cells [3]; MigR1, replicate 3
  IL-9 expression of Th9 cells: 68.6
Th9 cells [3]; SREBP1-overexpressing vector
  IL-9 gate number: 50.3
Th9 cells [3]; SREBP1, replicate 1
  IL-9 expression of Th9 cells: 50.3
Th9 cells [3]; SREBP1, replicate 2
  IL-9 expression of Th9 cells: 48.8
Th9 cells [3]; SREBP1, replicate 3
  IL-9 expression of Th9 cells: 60.7
Th9 cells [3]; result in words
  EpA-induced IL-9 increase (protein) upon SREBP1 overexpression: markedly suppressed
